This passage reports IC50 results from patent publication US20240368158A1, “KINASE MODULATORS, COMPOSITIONS COMPRISING THE KINASE MODULATOR, AND METHODS OF USING THE SAME” (BIOFRONT LTD, priority 2021, published 2024).

In test [1] the test system is HPK1 p-SLP-76 in Jurkat cells. Briefly: HPK1 p-SLP-76 inhibition assay in Jurkat cells (HTRF). The class given is cell-based. To be noted: Homo sapiens, 4 h compound, anti-CD3 stimulation 20 min. As to the method:
Before compound treatment, Jurkat cells were starved in PRMI-1640 medium supplemented with 0.5% FBS overnight. The cell density was adjusted to 1*10^7 cells/mL in assay medium (RPMI-1640 no phenol red with 0.5% FBS) and 16 uL cell suspension was transferred per well to a 384-well plate (Corning #3765). […] of test compound was prepared in assay medium and 4 uL was added per well to the 384-well plate. The plate was then incubated at 37° C., 5% CO2 for 4 h. Jurkat cells in 384-well plate were stimulated with anti-CD3 (BD Biosciences #555329, final conc. is 10 ug/mL) for 20 min at 37° C., 5% CO2 by adding 4 uL 6× antibody solution per well. Phospho-SLP76 HTRF kit was purchased from Cisbio (63ADK076PEH). 8 uL 4× Lysis Buffer was added to 384-well plate after anti-CD3 stimulation. The plate was centrifuged at 1,000 rpm for 1 min, shaken at 250 rpm for 60 min and centrifuged again at 1,000 rpm for 5 min. Afterwards the cell lysates were transferred to the assay plate (Greiner #784075) with 16 uL per well. 4 uL detection antibody mix per well prepared in Detection Buffer was added to the assay plate, followed by centrifugation at 1,000 rpm for 1 min and incubation at 25° C. overnight. The fluorescence emission at two different wavelengths (665 nm and 620 nm) was read by an HTRF compatible microplate reader and the IC50 value of the compound was calculated.

The target of another test is T1, FLT3-ITD (Homo sapiens, UniProt P36888).
T1 construct: The FLT3-ITD protein was purchased from Invitrogen (PV6190)
T1 sequence (P36888 1-993): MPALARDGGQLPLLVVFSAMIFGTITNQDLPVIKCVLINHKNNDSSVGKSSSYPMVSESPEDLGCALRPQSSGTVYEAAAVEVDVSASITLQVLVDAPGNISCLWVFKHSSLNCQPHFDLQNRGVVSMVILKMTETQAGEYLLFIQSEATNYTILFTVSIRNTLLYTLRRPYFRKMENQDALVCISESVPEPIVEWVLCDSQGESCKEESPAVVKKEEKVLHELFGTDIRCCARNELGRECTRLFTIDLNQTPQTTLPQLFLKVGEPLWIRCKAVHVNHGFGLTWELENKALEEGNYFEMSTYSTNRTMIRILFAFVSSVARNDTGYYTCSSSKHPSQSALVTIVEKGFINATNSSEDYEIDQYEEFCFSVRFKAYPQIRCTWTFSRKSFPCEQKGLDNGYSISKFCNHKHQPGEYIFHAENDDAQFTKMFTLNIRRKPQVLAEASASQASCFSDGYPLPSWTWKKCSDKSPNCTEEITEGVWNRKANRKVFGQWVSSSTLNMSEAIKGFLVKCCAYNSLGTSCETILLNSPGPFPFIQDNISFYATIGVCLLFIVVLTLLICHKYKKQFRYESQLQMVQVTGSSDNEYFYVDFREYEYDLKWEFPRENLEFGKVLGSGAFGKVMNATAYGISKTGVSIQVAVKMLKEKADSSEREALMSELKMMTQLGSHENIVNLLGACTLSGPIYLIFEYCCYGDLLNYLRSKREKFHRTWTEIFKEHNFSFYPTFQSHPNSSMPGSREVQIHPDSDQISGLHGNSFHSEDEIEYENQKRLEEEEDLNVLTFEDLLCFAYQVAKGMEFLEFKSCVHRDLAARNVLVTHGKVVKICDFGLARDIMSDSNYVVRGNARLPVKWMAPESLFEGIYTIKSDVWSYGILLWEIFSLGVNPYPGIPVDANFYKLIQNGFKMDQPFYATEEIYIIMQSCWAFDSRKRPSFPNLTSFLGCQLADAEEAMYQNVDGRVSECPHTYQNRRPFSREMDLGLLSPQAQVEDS
Briefly: FLT3-ITD enzyme inhibition assay (HTRF KinEASE-TK). The class given is biochemical. To be noted: FLT3-ITD protein, ATP 15 μM. The procedure: The compound was dissolved in 100% DMSO at the concentration of 10 mM. The FLT3-ITD protein was purchased from Invitrogen (PV6190). 5 μL per well of 2×FLT3-ITD protein was added to assay plate containing the test compound, centrifuged at 1000 rpm for 1 minute, and then incubated at 25° C. for 15 minutes. HTRF KinEASE-TK kit was purchased from Cisbio (62TK0PEC) and ATP was purchased from Thermo Fisher Scientific (R0441). TK-Substrate-biotin and ATP were added 5 μL per well mixture of 2×TK-Substrate-biotin (final conc. is […]) and ATP (final conc. is 15 μM), centrifuged at 1000 rpm for 1 minute, then incubated at 25° C. for 60 minutes. Then added 10 μL of detection buffer (0.25×TK-antibody Eu3+-cryptate, 0.125 μM streptavidine-XL 665) to the assay plate and centrifuged at 1000 rpm for 1 minute then incubated at 25° C. for 60 minutes and 4° C. incubated for overnight, the product was determined. Based on the results, the IC50 value of the compound was calculated.

The target in another test is T2, HPK1 (Homo sapiens, UniProt Q92918).
T2 construct: purchased Signal Chem M23-11G-10
T2 sequence (Q92918 1-346 limits assumed): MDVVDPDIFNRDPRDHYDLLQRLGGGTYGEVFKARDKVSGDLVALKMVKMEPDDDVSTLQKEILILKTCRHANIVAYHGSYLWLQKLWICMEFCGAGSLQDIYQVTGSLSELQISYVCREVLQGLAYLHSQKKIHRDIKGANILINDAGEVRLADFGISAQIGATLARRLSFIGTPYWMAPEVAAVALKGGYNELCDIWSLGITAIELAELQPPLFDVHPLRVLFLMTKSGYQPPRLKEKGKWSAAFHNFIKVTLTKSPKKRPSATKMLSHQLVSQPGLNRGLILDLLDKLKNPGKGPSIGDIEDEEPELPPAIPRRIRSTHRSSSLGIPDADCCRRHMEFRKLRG
Put plainly: HPK1 enzyme inhibition assay (ADP-Glo). The class given is biochemical. To be noted: MBP substrate, ATP. As to the method:
The compound was dissolved in 100% DMSO at the concentration of 10 mM. The HPK1 protein was purchased from Signal Chem (M23-11G-10). 2.5 μL per well of 2×HPK1 protein was added to assay plate containing the test compound, centrifuged at 1500 rpm for 1 minute, and then incubated at 25° C. for 60 minutes. MBP protein was purchased from Signal Chem (M42-51N) and ATP was purchased from Promega (V9102). The two were added 2.5 μL per well mixture of 2×MBP (0.2 ug/ul) and ATP (20 μM), centrifuged at 1500 rpm for 1 minute, then incubated at 25° C. for 60 minutes. Then added 5 μL of ADP-Glo from Promega (V9102) to the assay plate and depleted the unconsumed ATP for 60 minutes. Then centrifuged at 1500 rpm for 1 minute and incubated at 25° C. for 60 minutes. Finally, 10 μL of the kinase assay reagent from Promega (V9102) was added to the assay plate to convert ADP to ATP, centrifuged at 1500 rpm for 1 minute, incubate at 25° C. for 40 minutes. After 40 minutes incubation, the […] was determined. Based on the results, the IC50 value of the compound was calculated.
In general terms: ADP-Glo first removes unused ATP, then detects ADP through luciferase.

Broadly, the IC50 is the concentration needed to halve the response being measured. Read a high IC50 as lower potency. Consider `CS(=O)(=O)N1CCN(c2cccc(-c3cnc4[nH]cc(C5CC5)c4c3Cl)c2)C(=O)C1` [Example 53, 1-(3-(4-chloro-3-cyclopropyl-1H-pyrrolo[2,3-b]pyridin-5-yl)phenyl)-4-(methylsulfonyl)piperazin-2-one], for which the results for the IC50 (in test [1]; against FLT3-ITD; on HPK1) were 300 to 3000 nM, at most 10 nM and at most 10 nM, respectively.
Regarding `CCc1c[nH]c2ncc(-c3cccc(N4CCN(C(=O)COc5ccc(C[C@@H](N)C(=O)O)cc5)CC4=O)c3)c(Cl)c12` [Example 45, (R)-2-amino-3-(4-(2-(4-(3-(4-chloro-3-ethyl-1H-pyrrolo[2,3-b]pyridin-5-yl)phenyl)-3-oxopiperazin-1-yl)-2-oxoethoxy)phenyl)propanoic acid], the results for the IC50 (in test [1]; against FLT3-ITD; against HPK1) were over 10000 nM, at most 10 nM and at most 10 nM, respectively.
Take `CCc1c[nH]c2ncc(-c3cccc(N4CCN(C(=O)CCCO[C@@H]5O[C@H](CO)[C@@H](O)[C@H](O)[C@H]5O)CC4=O)c3)c(Cl)c12` [Example 48, 1-(3-(4-chloro-3-ethyl-1H-pyrrolo[2,3-b]pyridin-5-yl)phenyl)-4-(4-(((2R,3R,4S,5S,6R)-3,4,5-trihydroxy-6-(hydroxymethyl)tetrahydro-2H-pyran-2-yl)oxy)butanoyl)piperazin-2-one]: the results for the IC50 (in test [1]; against FLT3-ITD; against HPK1) were over 10000 nM, at most 10 nM and at most 10 nM, respectively.
For `CCc1c[nH]c2ncc(-c3cccc(N4CCN(C(=O)CNC(=O)[C@@H](N)C(C)C)CC4=O)c3)c(Cl)c12` [Example 44, (S)-2-amino-N-(2-(4-(3-(4-chloro-3-ethyl-1H-pyrrolo[2,3-b]pyridin-5-yl)phenyl)-3-oxopiperazin-1-yl)-2-oxoethyl)-3-methylbutanamide], the IC50 is 300 to 3000 nM in test [1], at most 10 nM against FLT3-ITD and at most 10 nM against HPK1.
Consider `CCc1c[nH]c2ncc(-c3cccc(N4CCN(C(=O)COC)CC4=O)c3)c(Cl)c12` [Example 25, 1-(3-(4-chloro-3-ethyl-1H-pyrrolo[2,3-b]pyridin-5-yl)phenyl)-4-(2-methoxyacetyl)piperazin-2-one], for which the results for the IC50 (in test [1]; at FLT3-ITD; against HPK1) were at most 300 nM, at most 10 nM and at most 10 nM, respectively.
Turning to `CCc1c[nH]c2ncc(-c3cccc(N4CCN(C(=O)COc5cccc(C6O[C@H](CO)[C@@H](O)[C@H](O)[C@H]6O)c5)CC4=O)c3)c(Cl)c12` (stereo partly drawn) [Example 50, 1-(3-(4-chloro-3-ethyl-1H-pyrrolo[2,3-b]pyridin-5-yl)phenyl)-4-(2-(3-((3R,4R,5S,6R)-3,4,5-trihydroxy-6-(hydroxymethyl)tetrahydro-2H-pyran-2-yl)phenoxy)acetyl)piperazin-2-one], the figures for the IC50 (in test [1]; against FLT3-ITD; on HPK1) were 300 to 3000 nM, at most 10 nM and at most 10 nM, respectively.
Turning to `O=C1CNCCN1c1cccc(-c2cnc3[nH]cc(C4CC4)c3c2Cl)n1` [Example 15, 1-(6-(4-chloro-3-cyclopropyl-1H-pyrrolo[2,3-b]pyridin-5-yl)pyridin-2-yl)piperazin-2-one], the figures for the concentration for half-maximal inhibition (IC50) (in test [1]; against HPK1) were at most 300 nM and at most 10 nM, respectively.
`CCc1c[nH]c2ncc(-c3csc(N4CCNCC4=O)n3)c(Cl)c12` [Example 10, 1-(4-(4-chloro-3-ethyl-1H-pyrrolo[2,3-b]pyridin-5-yl)thiazol-2-yl)piperazin-2-one]: the IC50 in test [1] lay within 300 to 3000 nM; at HPK1 it was 10 to 100 nM.
Take `COCC(=O)N1CCN(c2cccc(-c3cnc4[nH]cc(C5CC5)c4c3Cl)c2)C(=O)C1` [Example 32, 1-(3-(4-chloro-3-cyclopropyl-1H-pyrrolo[2,3-b]pyridin-5-yl)phenyl)-4-(2-methoxyacetyl) piperazin-2-one]: the results for the IC50 (in test [1]; at HPK1) were at most 300 nM and at most 10 nM, respectively.
In the case of `CCc1c[nH]c2ncc(-c3cccc(N4CCN(C(=O)CN(C)C)CC4=O)c3)c(Cl)c12` [Example 31, 1-(3-(4-chloro-3-ethyl-1H-pyrrolo[2,3-b]pyridin-5-yl)phenyl)-4-(dimethylglycyl)piperazin-2-one], the IC50 in test [1] was 300 to 3000 nM; at HPK1 it was at most 10 nM.
The corresponding values for `CCc1c[nH]c2ncc(-c3cccc(N4CCN(C(=O)CC[C@H](NC(=O)c5ccc(NCc6cnc7nc(N)[nH]c(=O)c7n6)cc5)C(=O)O)CC4=O)c3)c(Cl)c12` [Example 47, (S)-2-(4-(((2-amino-4-oxo-3,4-dihydropteridin-6-yl)methyl)amino)benzamido)-5-(4-(3-(4-chloro-3-ethyl-1H-pyrrolo[2,3-b]pyridin-5-yl)phenyl)-3-oxopiperazin-1-yl)-5-oxopentanoic acid] are over 10000 nM and 10 to 100 nM.
On to `CCc1c[nH]c2ncc(-c3cccc(N4CCC[C@@H](CO)C4=O)c3)c(Cl)c12` [Example 24, (S)-1-(3-(4-chloro-3-ethyl-1H-pyrrolo[2,3-b]pyridin-5-yl)phenyl)-3-(hydroxymethyl)piperidin-2-one], for which the half-inhibitory concentration (IC50) in test [1] was 300 to 3000 nM; on HPK1, at most 10 nM.
The corresponding values for `CCc1c[nH]c2ncc(-c3cccc(N4CCN(C(=O)CN5CCOCC5)CC4=O)c3)c(Cl)c12` [Example 26, 1-(3-(4-chloro-3-ethyl-1H-pyrrolo[2,3-b]pyridin-5-yl)phenyl)-4-(2-morpholinoacetyl)piperazin-2-one] are 300 to 3000 nM and at most 10 nM.
